What all share (assay type): cell-based
Assay [1] addresses T1, PAR2 (HT-29 cells) (Homo sapiens, UniProt P55085).
T1 construct: host or cells: HT-29
T1 sequence (P55085 26-397): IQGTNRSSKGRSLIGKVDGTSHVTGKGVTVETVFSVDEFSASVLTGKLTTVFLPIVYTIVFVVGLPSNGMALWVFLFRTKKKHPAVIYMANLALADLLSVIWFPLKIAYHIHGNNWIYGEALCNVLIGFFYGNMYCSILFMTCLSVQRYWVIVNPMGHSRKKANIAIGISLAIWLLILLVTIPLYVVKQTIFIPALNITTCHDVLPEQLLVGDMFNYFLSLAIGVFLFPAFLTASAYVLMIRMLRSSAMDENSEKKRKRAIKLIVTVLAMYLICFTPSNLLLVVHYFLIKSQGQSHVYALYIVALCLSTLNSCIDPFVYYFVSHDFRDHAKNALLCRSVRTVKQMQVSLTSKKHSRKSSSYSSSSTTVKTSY
In words: Ca FLIPR TETRA assay, ANTAGONIST mode, activator 8 μM SLIGKV. As to conditions: HT-29 cells, activator 8 μM SLIGKV; maximal antagonist concentration per Method (A: 0.1, 1 or 2 μM; B: 50 μM). In outline: (§1)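 HT-29 cells in 1% FBS/McCoy's overnight, loaded with FLIPR Calcium 5 dye (45 min 37 °C, 15 min r.t.); compounds added and read for intrinsic Ca2+ activation, then after 30 min r.t. stimulated with fixed activator: 8 μM SLIGKV, 0.6 μM UTP, 1 U/mL thrombin or 3.1 U/mL trypsin (final).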

The target of assay [2] is T1, PAR2 (HT-29 cells). Description: Ca FLIPR TETRA assay, ANTAGONIST mode, activator 3.1 U/mL trypsin. As to conditions: HT-29 cells, activator 3.1 U/mL trypsin; maximal antagonist concentration per Method (A: 0.1, 1 or 2 μM; B: 50 μM). Summed up:
as §1

Assay [3] deals with Thrombin-stimulated Ca2+ response in HT-29 cells. In words: Ca FLIPR TETRA assay, ANTAGONIST mode, activator 1 U/mL Thrombin. As to conditions: Homo sapiens; HT-29 cells, activator 1 U/mL Thrombin. In outline: as §1
Assay [4] has as its system UTP-stimulated Ca2+ response in HT-29 cells. In words: Ca FLIPR TETRA assay, ANTAGONIST mode, activator 0.6 μM UTP. The conditions noted are these: Homo sapiens; HT-29 cells, activator 0.6 μM UTP. Summed up: as §1

Bounds are passed on as bounds.

What is called IC50 is the concentration that inhibits the measured activity by half. As for `CC(C)c1cc(-c2ccc(F)cc2)nc2cc(C(=O)N3CCN(S(=O)(=O)c4cn[nH]c4)CC3(C)C)oc12` [Example I-147], the IC50 in assay [1] was 20 nM; in assay [2], 34 nM; in assay [3], more than 1000 nM; in assay [4], more than 1000 nM.
Turning to `CC(C)c1cc(-c2ccc(F)cc2)nc2cc(C(=O)N3CCN(S(=O)(=O)c4ccn(C)n4)CC3(C)C)oc12` [Example I-148], the IC50 in assay [1] was 46 nM; in assay [2] it was 36 nM; in assay [3], more than 1000 nM; in assay [4] it was more than 1000 nM.
Take `CC(C)(C)c1cc(-c2ccc(F)cc2)nc2cc(C(=O)N3CCNC(=O)C3(C)C)oc12` [Example I-149]: the IC50 in assay [1] was 7.6 nM; in assay [2] it was 9.6 nM; in assay [3], more than 1000 nM; in assay [4] it was more than 1000 nM.
Turning to `CCc1cc(-c2ccc(F)cc2)nc2cc(C(=O)N3CCN(C(=O)[C@H]4C[C@](O)(C(F)(F)F)C4)CC3(C)C)oc12` [Example I-150], the IC50 is 1.1 nM in assay [1], 1.6 nM in assay [2], more than 1000 nM in assay [3] and more than 1000 nM in assay [4].
Take `CC(C)(C)c1cc(-c2ccc(F)cc2)nc2cc(C(=O)N3CCN(C(=O)[C@H]4C[C@@](C)(O)C4)CC3(C)C)oc12` [Example I-151]: the half-maximal inhibitory concentration (IC50) in assay [1] was 1.5 nM; in assay [2], 2.7 nM; in assay [3], more than 1000 nM; in assay [4], more than 1000 nM.
As for `CC(C)(C)c1cc(-c2ccc(F)cc2)nc2cc(C(=O)N3CCN(C(=O)c4ccn[nH]4)CC3(C)C)oc12` [Example I-152], the 50% inhibitory concentration (IC50) in assay [1] is 8.1 nM; in assay [2] it was 7.7 nM; in assay [3], more than 1000 nM; in assay [4], more than 1000 nM.
As for `CC(C)(C)c1cc(-c2ccc(Cl)cc2)nc2cc(C(=O)N3CCNC(=O)C3(C)C)oc12` [Example I-153, 4-[7-tert-butyl-5-(4-chlorophenyl)furo[3,2-b]pyridine-2-carbonyl]-3,3-dimethyl-piperazin-2-one], the IC50 in assay [1] was 4.9 nM; in assay [2], 3 nM; in assay [3] it was more than 1000 nM; in assay [4], more than 1000 nM.
Regarding `CC(C)(C)c1cc(-c2ccc(F)cc2)nc2cc(C(=O)N3CCN(C(=O)c4nnc[nH]4)CC3(C)C)oc12` [Example I-154], the IC50 was 4.7 nM in assay [1], 3.6 nM in assay [2], more than 1000 nM in assay [3] and more than 1000 nM in assay [4].
As for `CC(C)c1cc(-c2ccc(C(F)(F)F)cc2)nc2cc(C(=O)N3CCNC(=O)C3(C)C)oc12` [Example I-155], the IC50 in assay [1] is 14 nM; in assay [2], 28 nM; in assay [3] it was more than 1000 nM; in assay [4], more than 1000 nM.
As for `CC(C)(C)c1cc(-c2ccc(C(F)(F)F)cc2)nc2cc(C(=O)N3CCNC(=O)C3(C)C)oc12` [Example I-156], the IC50 was 18 nM in assay [1], 26 nM in assay [2], more than 1000 nM in assay [3] and more than 1000 nM in assay [4].
For the molecule `CC(C)(C)c1cc(-c2ccc(C(F)(F)F)cc2)nc2cc(C(=O)N3CCN(C(=O)[C@H]4C[C@@](C)(O)C4)CC3(C)C)oc12` [Example I-158], the 50% inhibitory concentration (IC50) in assay [1] was 3.1 nM; in assay [2] it was 3.9 nM; in assay [3], more than 1000 nM; in assay [4] it was more than 1000 nM.
On to `CC(C)(C)c1cc(-c2ccc(Cl)cc2)nc2cc(C(=O)N3CCN(C(=O)[C@H]4C[C@@](C)(O)C4)CC3(C)C)oc12` [Example I-159], for which the 50% inhibitory concentration (IC50) in assay [1] is 0.6 nM; in assay [2] it was 1.1 nM; in assay [3] it was more than 1000 nM; in assay [4], more than 1000 nM.
As for `Cc1nnc(C(=O)N2CCN(C(=O)c3cc4nc(-c5ccc(F)cc5)cc(C(C)(C)C)c4o3)C(C)(C)C2)[nH]1` [Example I-160], the 50% inhibitory concentration (IC50) in assay [1] is 1.6 nM; in assay [2], 3.1 nM; in assay [3] it was more than 1000 nM; in assay [4], more than 1000 nM.
Turning to `Cc1cc(-c2cc(C(C)(C)C)c3oc(C(=O)N4CCNC(=O)C4(C)C)cc3n2)ccc1F` [Example I-161], the IC50 is 16 nM in assay [1], 25 nM in assay [2], more than 1000 nM in assay [3] and more than 1000 nM in assay [4].
Turning to `Cc1cc(-c2cc(C(C)(C)C)c3oc(C(=O)N4CCN(C(=O)c5nnc[nH]5)CC4(C)C)cc3n2)ccc1F` [Example I-162], the IC50 was 10 nM in assay [1], 15 nM in assay [2], more than 1000 nM in assay [3] and more than 1000 nM in assay [4].
As to `Cc1cc(-c2cc(C(C)(C)C)c3oc(C(=O)N4CCN(C(=O)[C@H]5C[C@@](C)(O)C5)CC4(C)C)cc3n2)ccc1F` [Example I-163], the IC50 in assay [1] was 2.9 nM; in assay [2], 3.6 nM; in assay [3], more than 1000 nM; in assay [4] it was more than 1000 nM.
For `Cc1ccc(-c2cc(C(C)(C)C)c3oc(C(=O)N4CCN(C(=O)[C@H]5C[C@@](C)(O)C5)CC4(C)C)cc3n2)cc1` [Example I-164], the IC50 in assay [1] is 2.9 nM; in assay [2], 4 nM; in assay [3] it was more than 1000 nM; in assay [4], more than 1000 nM.
As for `Cc1ccc(-c2cc(C(C)(C)C)c3oc(C(=O)N4CCNC(=O)C4(C)C)cc3n2)cc1` [Example I-165], the IC50 was 16 nM in assay [1], 19 nM in assay [2], more than 1000 nM in assay [3] and more than 1000 nM in assay [4].
As to `Cc1nnc(C(=O)N2CCN(C(=O)c3cc4nc(-c5ccc(F)c(C)c5)cc(C(C)(C)C)c4o3)C(C)(C)C2)[nH]1` [Example I-166], the 50% inhibitory concentration (IC50) was 1.3 nM in assay [1], 3.3 nM in assay [2], more than 1000 nM in assay [3] and more than 1000 nM in assay [4].
Turning to `Cc1cc(-c2cc(C(C)(C)C)c3oc(C(=O)N4CCN(C(=O)c5ccn[nH]5)CC4(C)C)cc3n2)ccc1F` [Example I-167], the half-maximal inhibitory concentration (IC50) in assay [1] was 8.4 nM; in assay [2], 19 nM; in assay [3] it was more than 1000 nM; in assay [4], more than 1000 nM.
Turning to `CC(C)(C)c1cc(-c2ccc(Cl)cc2)nc2cc(C(=O)N3CCN(C(=O)c4ccn[nH]4)CC3(C)C)oc12` [Example I-168], the half-inhibitory concentration (IC50) in assay [1] was 2.8 nM; in assay [2], 3 nM; in assay [3] it was more than 1000 nM; in assay [4], more than 1000 nM.
As to `CC(C)(C)c1cc(-c2ccc(Cl)cc2)nc2cc(C(=O)N3CCN(C(=O)c4nnc[nH]4)CC3(C)C)oc12` [Example I-169], the IC50 in assay [1] was 0.9 nM; in assay [2] it was 2.4 nM; in assay [3], more than 1000 nM; in assay [4], more than 1000 nM.
For `Cc1ncc(C(=O)N2CCN(C(=O)c3cc4nc(-c5ccc(C(F)(F)F)cc5)cc(C(C)(C)C)c4o3)C(C)(C)C2)[nH]1` [Example I-170], the IC50 in assay [1] was 6 nM; in assay [2] it was 8.2 nM; in assay [3], more than 1000 nM; in assay [4], more than 1000 nM.
With `Cc1cc(C(=O)N2CCN(C(=O)c3cc4nc(-c5ccc(C(F)(F)F)cc5)cc(C(C)(C)C)c4o3)C(C)(C)C2)[nH]n1` [Example I-171], the 50% inhibitory concentration (IC50) is 5.6 nM in assay [1], 6.6 nM in assay [2], more than 1000 nM in assay [3] and more than 1000 nM in assay [4].
On to `CC(C)(C)c1cc(-c2ccc(Cl)c(F)c2)nc2cc(C(=O)N3CCNC(=O)C3(C)C)oc12` [Example I-172, 4-[7-tert-butyl-5-(4-chloro-3-fluoro-phenyl)furo[3,2-b]pyridine-2-carbonyl]-3,3-dimethyl-piperazin-2-one], for which the half-maximal inhibitory concentration (IC50) is 10 nM in assay [1], 12 nM in assay [2], more than 1000 nM in assay [3] and more than 1000 nM in assay [4].
